Measurements: patent publication US10822325B2, “Human GLUT5 specific inhibitors and methods of treatment” (UNM RAINFOREST INNOVATIONS, priority 2015, dated 2020)
Entries after “also recorded” stand apart in the source; their conditions may differ.

What was measured:
human GLUT2 = target: T1, human GLUT2 (Homo sapiens, UniProt P11168); assay: Glucose or fructose entrance counter-flow transport in GLUT2 proteoliposomes; format: biochemical; settings: 2 mM compound
T1 construct: Full length DNA was subcloned into pFastBac1 (Life Technologies) vector with a N-terminal hexahistidine tag; hexahistidine (N); made in house; host or cells: Sf21 insect cells (baculovirus, pFastBac1)
T1 sequence (P11168 1-524): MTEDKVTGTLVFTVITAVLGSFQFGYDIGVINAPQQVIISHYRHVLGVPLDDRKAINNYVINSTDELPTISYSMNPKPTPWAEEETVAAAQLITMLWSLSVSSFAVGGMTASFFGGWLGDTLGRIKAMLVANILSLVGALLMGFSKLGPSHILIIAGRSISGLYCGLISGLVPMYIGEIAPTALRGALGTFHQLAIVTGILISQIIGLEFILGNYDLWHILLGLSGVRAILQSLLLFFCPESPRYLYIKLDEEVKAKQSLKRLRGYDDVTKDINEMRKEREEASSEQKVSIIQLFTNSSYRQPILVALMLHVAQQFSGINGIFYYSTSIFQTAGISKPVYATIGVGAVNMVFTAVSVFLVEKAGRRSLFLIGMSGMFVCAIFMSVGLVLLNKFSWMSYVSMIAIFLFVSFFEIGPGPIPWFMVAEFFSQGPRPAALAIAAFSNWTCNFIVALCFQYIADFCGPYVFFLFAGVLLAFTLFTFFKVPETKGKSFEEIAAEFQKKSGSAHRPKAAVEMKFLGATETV
Procedure: (§1) cDNAs of GLUT1, 3, 4 and 5 were purchased from Open Biosystems (GE Healthcare). cDNAs of GLUT2 was a gift from Prof. Graeme Bell at University of Chicago. Full length DNA was subcloned into pFastBac1 (Life Technologies) vector with a N-terminal hexahistidine tag. Bacmids were generated in DH10Bac E. coli cells (Life Technologies). Baculoviruses were produced using Cellfectin II Reagent and amplified in Sf21 insect cells (Life Technologies). Cells were maintained at 26° C., and P1 (10^6 pfu/mL) was collected from infected cells after 72 hours. SF21 cells were propagated in HyClone SFX-Insect media (GE Healthcare), supplemented with 5% fetal bovine serum (Biowest), 4.8 mM glutamine, antibiotics (100 units/mL Penicillin G and 100 μg/mL streptomycin sulfate) and amphotericin B (2.5 μg/mL). […]
(§2) For the entrance counterflow transport in proteoliposomes, the assay was started by the addition of 5 μL proteoliposomes solution (OD600 nm ˜30) to 200 μL, assay solution, containing 10 μM ^14C-radiolabeled glucose (for GLUT1 wild-type or F379H mutant and GLUT2-4) or fructose (for GLUT5 wild-type or H387F mutant and GLUT2) (Moravek Biochemicals) in 100 mM KPi buffer at pH 7.5. After one minute (or different specified time points when the time-dependent counter-flow transport activity was measured), the transport was stopped with ice-chilled quench buffer [0.1 M KPi (pH 5.5) and 0.1 M lithium chloride]. […]

human GLUT4 = target: T2, human GLUT4 (Homo sapiens, UniProt P14672); assay: Glucose entrance counter-flow transport in GLUT4 proteoliposomes; format: biochemical; settings: 2 mM compound
T2 construct: Full length DNA was subcloned into pFastBac1 (Life Technologies) vector with a N-terminal hexahistidine tag; hexahistidine (N); made in house; host or cells: Sf21 insect cells (baculovirus, pFastBac1)
T2 sequence (P14672 1-509): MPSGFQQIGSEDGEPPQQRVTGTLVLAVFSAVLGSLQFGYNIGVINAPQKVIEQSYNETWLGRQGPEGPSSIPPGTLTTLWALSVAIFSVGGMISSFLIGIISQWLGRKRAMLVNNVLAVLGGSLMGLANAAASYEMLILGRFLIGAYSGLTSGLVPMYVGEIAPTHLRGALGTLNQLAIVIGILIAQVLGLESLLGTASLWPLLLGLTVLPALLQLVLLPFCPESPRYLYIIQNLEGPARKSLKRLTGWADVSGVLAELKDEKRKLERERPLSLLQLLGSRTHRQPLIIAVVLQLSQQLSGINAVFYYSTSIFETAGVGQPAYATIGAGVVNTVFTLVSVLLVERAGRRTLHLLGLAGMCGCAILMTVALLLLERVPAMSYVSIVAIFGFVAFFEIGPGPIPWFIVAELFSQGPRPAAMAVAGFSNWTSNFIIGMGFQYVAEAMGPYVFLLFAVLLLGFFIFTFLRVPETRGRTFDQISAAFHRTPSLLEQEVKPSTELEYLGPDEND
Procedure: as §1, §2

`CS(=O)(=O)c1ccc(Nc2ccc3c(c2)OCO3)c([N+](=O)[O-])c1` [MSNBA, N-[4-(methylsulfonyl)-2-nitrophenyl]-1,3-benzodioxol-5-amine] was tested, and the “effect on GLUT2 fructose transport” value (human GLUT2; fructose as substrate) was “did not affect; also recorded: did not influence”, the “effect on GLUT2 glucose transport” value (human GLUT2; glucose as substrate) was “did not influence; also recorded: did not affect” and the “effect on GLUT4 glucose transport” value (human GLUT4) was “did not affect; also recorded: did not influence”.
